Reference: patent EP4817688A2, “DEGRADING PKCß1 TO TREAT CANCER” (Mayo Foundation for Medical Education and Research, priority 2020, dated 2022)

What was measured:
KURAMOCHI cells = assay: crystal violet (CV) proliferation assay, KURAMOCHI; format: cell-based; conditions: KURAMOSHI (PKCβ1^low) 1000 cells/well; read-out: Approximate IC50
Protocol: (§1) Cell proliferation rates were determined using crystal violet assays. One thousand cells per well were plated in 96 well tissue culture plates and treated the following day with a bifunctional compound or control for 7 days in replicates of 8. Cells were fixed with 25% glutaraldehyde for 10 minutes with shaking, washed 5 times with distilled water, stained with a 1% crystal violet solution (solubilized in 25% methanol) for 10 minutes, washed again 5 times and allowed to dry. De-staining was performed using […] sodium citrate in 50% ethanol followed by quantification using a 96 well spectrophotometer set at an absorbance of 550 nm.
(§2) Based on the potent anti-proliferative activity of ENDX-PROTACs TC-Pr-006, TC-Pr-007, TC-Pr -008, and TC-Pr -009 in TNBC cells, the efficacy of these compounds for inhibiting the growth of ovarian cancer cells was tested. This analysis utilized KURAMOCHI cells, which represent the high-grade serous subtype (the most malignant form that accounts for 70% of all ovarian cancers and associates with poor clinical outcome) and MDAH-2774 cells, which represent endometrioid ovarian cancer and accounts for 20% of all ovarian cancer. PKCβ1 was confirmed to be expressed in both ovarian cancer cell line models, with MDAH-2774 cells expressing higher amounts of PKCβ1 compared to KURAMOCHI cells (FIG. 5A). […]

MDAH-2774 cells = assay: crystal violet (CV) proliferation assay, MDAH-2774; format: cell-based; conditions: Homo sapiens; MDAH-2774 (PKCβ1^high) 1000 cells/well; read-out: Approximate IC50
Protocol: as §1, §2

Q: Which IC50 (KURAMOCHI cells) does the source give for CCC(=C(c1ccc(O)cc1)c1ccc(OCCN(C)C(=O)COCCOCCNC(=O)Cc2ccc3c(c2)CN(C2CCC(=O)NC2=O)C3=O)cc1)c1ccccc1 (centres unmarked) [TC-Pr-009, 2-[2-(2-2-[2-(2,6-dioxopiperidin-3-yl)-1-oxo-2,3-dihydro-1H-isoindol-5-yl]acetamidoethoxy)ethoxy]-N-(2-4-[1-(4-hydroxyphenyl)-2-phenylbut-1-en-1-yl]phenoxyethyl)-N-methylacetamide] here?
A: The IC50 was 1 to 10 µM.

Q: And the IC50 (MDAH-2774 cells)?
A: The IC50 was 1 to 10 µM.
